Measured values published in PMC7799360, “Reprogramming immunosuppressive myeloid cells facilitates immunotherapy for colorectal cancer” (EMBO Molecular Medicine, 2020).

Experiments:
ADRA1B = target: T1, ADRA1B (Homo sapiens, UniProt P35368); assay: GPCR calcium flux assay; assay type: cell-based
T1 construct: Pharmaron (Beijing, China) performed the assay

STAT3 and AKT signaling = assay: Western blot of p-STAT3 and p-AKT in bone marrow-derived macrophages; assay type: cell-based, mouse; conditions: BMMs, IL-4 20 ng/ml + 100 nM PGE2, 10 μM TP-16
Protocol: Briefly, cells and tumor tissues were lysed with radio immunoprecipitation assay buffer containing phosphatase and protease inhibitor cocktail (MedChemExpress, Monmouth Junction, NJ, USA). A total of 30‐80 μg of normalized total proteins from lysates were run on 6‐10% SDS‐polyacrylamide gels. The proteins transferred from gels to nitrocellulose membranes (Millipore, Billerica, MA, USA) were incubated with primary antibodies overnight at 4°C, washed, and incubated with secondary antibodies for 1 h at room temperature. Visual signals were detected using the LI‐COR Odyssey Infrared Imaging System (LI‐COR Biosciences, Lincoln, NE). Mouse protein primary antibodies used for Western blotting were listed as follows: COX2 (1:1000 dilution, 12282, CST), p‐Stat3 (1:2000 dilution, Tyr^705, 9145, CST), Stat3 (1:1000 dilution, 9139, CST), p‐Akt (1:2000 dilution, Ser^473, 4060, CST), Akt (1:1000 dilution, 9272, CST), Arg‐1 (1:100 dilution, 16001, Proteintech, Rosemont, IL), and GAPDH (1:10000 dilution, Ab181602, Abcam).

ADRB1 = target: T2, ADRB1 (Homo sapiens, UniProt P08588); assay: GPCR calcium flux assay; assay type: cell-based
T2 construct: Pharmaron (Beijing, China) performed the assay
T2 sequence (P08588 whole entry, species assumed): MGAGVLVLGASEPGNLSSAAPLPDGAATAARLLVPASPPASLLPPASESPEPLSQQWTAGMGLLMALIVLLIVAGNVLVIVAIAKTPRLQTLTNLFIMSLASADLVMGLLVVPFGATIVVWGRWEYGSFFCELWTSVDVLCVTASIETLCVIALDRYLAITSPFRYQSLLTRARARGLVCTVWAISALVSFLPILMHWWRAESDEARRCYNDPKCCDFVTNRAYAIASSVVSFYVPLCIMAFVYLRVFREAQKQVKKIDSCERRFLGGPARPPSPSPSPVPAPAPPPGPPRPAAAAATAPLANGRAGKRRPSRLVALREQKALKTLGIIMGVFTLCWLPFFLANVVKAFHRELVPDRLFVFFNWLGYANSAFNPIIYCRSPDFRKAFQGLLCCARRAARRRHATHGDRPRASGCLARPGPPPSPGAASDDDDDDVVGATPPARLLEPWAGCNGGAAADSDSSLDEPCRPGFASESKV

HCT8 = assay: Cell viability (MTS); assay type: cell-based, human; conditions: HCT8, 100 µM
Source text: (§1) The murine colon cancer (CT26), murine breast cancer (4T1), and human colon cancer (HCT116, HCT8, HT29, and DLD1) cell lines were obtained from American Type Culture Collection (ATCC). The murine cell lines of melanoma (B16F10), pancreatic cancer (Pan02), and colon cancer (MC38), Chinese hamster ovary (CHO) cell line, and human embryonic kidney cell lines (HEK293 and HEK293T) were purchased from the National Infrastructure of Cell Line Resource (Shanghai, China). Primary human endothelial cells (HUVECs) were kindly provided by Dr. Xinli Wang (Baylor College of Medicine, Houston, TX, USA) and cultured in endothelial cell medium (ScienCell, San Diego, CA, USA) according to the manufacturer’s instructions. The CHO‐Gα16 cell line was established in our previous study and maintained in DMEM/F12 medium containing puromycin (4 μg/ml) (Wu et al., 2018). Cell lines were maintained in vendor recommended growth medium supplemented with 10% FBS (Gibco, Waltham, MA, USA) and 1% penicillin/streptomycin solution (Gibco) at 37°C ins a humidified atmosphere (5% CO2). All cell lines were authenticated using short tandem repeat analysis. All cell lines were confirmed to be mycoplasma‐free by polymerase chain reaction (PCR) analysis. Cell viability was determined using CellTiter 96 ® Aqueous One Solution (Promega, Madison, WI).
(§2) Appendix Figure S1. […]. The cytotoxicity curves
(§3) . Mouse cancer cells: CT26
(§4) . Human colon cancer cells: HCT116 (E),
(§5) HCT8 (F), HT29 (G) and DLD1 (H). Human normal cell line: HUVECs (I). Cell
(§6) viability was measured by MTS. Data are presented as mean ± SEM derived
(§7) from three independent experiments (n=3).
(§8) (1 picture or pasted object on this page, not shown here)

HCT116 = assay: Cell viability (MTS); assay type: cell-based, human; conditions: HCT116, 100 µM
Source text: as §1, §2, §3, §4, §5, §6, §7, §8

HUVEC = assay: Cell viability (MTS); assay type: cell-based, human; conditions: 100 µM
Source text: as §1, §2, §3, §4, §5, §6, §7, §8

DLD1 = assay: Cell viability (MTS); assay type: cell-based, human; conditions: DLD1, 100 µM
Source text: as §1, §2, §3, §4, §5, §6, §7, §8

HT29 = assay: Cell viability (MTS); assay type: cell-based, human; conditions: HT29, 100 µM
Source text: as §1, §2, §3, §4, §5, §6, §7, §8

4T1 tumors = assay: 4T1 breast cancer model in BALB/c mice; assay type: in vivo, mouse; conditions: 4T1, BALB/c mice, 75 mg/kg p.o. daily
Protocol: (§9) Syngeneic mouse tumor‐bearing models were established as described previously (Tan et al., 2018). Tumor cells (5 × 10^5 ‐ 2 × 10^6) were suspended in 100 μl PBS and implanted subcutaneously into the flank of mice. Mice were randomized into different treatment groups when tumor volumes reached 100‐200 mm^3. V = L×W^2 × 0.52, where L is the longest diameter, and W is the shortest diameter. Tumor size and body weight were recorded every second or third day. Mouse survival was analyzed using the Kaplan–Meier method.
(§10) Single agent or combination treatment was designed as follows: TP‐16 (37.5, 75, 150 mg/kg) or celecoxib (100 mg/kg) was formulated in 0.5% carboxymethylcellulose sodium (CMC‐Na, Sangon Biotech, Shanghai, China) and administered via oral gavage daily. In vivo anti‐PD1 antibody (clone RMP1‐14, BioXCell, West Lebanon, NH, USA) and rat IgG2a isotype control (clone 2A3, BioXCell) were diluted in sterile PBS and administered intraperitoneally at a dose of 50 μg twice weekly.

AT1 = target: T3, AT1 (Homo sapiens, UniProt P30556); assay: GPCR calcium flux assay; assay type: cell-based
T3 construct: Pharmaron (Beijing, China), contract laboratory
T3 sequence (P30556 whole entry): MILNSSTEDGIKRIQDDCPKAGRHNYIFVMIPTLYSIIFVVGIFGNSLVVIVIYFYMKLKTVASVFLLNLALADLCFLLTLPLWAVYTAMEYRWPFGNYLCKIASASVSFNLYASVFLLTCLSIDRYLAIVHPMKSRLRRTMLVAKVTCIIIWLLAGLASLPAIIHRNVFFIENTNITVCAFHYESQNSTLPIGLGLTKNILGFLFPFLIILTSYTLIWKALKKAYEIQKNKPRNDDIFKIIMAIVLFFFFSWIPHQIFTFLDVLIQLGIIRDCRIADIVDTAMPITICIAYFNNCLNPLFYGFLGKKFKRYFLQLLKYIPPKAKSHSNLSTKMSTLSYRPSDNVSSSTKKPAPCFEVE

CT26 tumors = assay: CT26 subcutaneous syngeneic tumor model in BALB/c mice; assay type: in vivo, mouse
Protocol: as §9, §10

HRH1 = target: T4, HRH1 (Homo sapiens, UniProt P35367); assay: GPCR calcium flux assay; assay type: cell-based
T4 construct: Pharmaron (Beijing, China), contract laboratory
T4 sequence (P35367 whole entry, species assumed): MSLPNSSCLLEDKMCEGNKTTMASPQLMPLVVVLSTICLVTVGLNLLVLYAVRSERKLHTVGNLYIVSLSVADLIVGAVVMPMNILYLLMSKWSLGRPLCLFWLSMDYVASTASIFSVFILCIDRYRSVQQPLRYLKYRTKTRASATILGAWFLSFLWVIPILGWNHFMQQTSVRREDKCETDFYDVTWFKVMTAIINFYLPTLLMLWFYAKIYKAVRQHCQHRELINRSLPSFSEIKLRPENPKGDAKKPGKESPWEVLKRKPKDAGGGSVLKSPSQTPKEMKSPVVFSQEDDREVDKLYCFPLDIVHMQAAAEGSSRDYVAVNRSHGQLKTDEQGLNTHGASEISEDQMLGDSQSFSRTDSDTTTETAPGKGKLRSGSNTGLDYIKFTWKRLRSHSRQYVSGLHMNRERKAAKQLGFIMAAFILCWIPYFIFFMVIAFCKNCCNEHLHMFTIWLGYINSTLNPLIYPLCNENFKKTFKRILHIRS

T1 sequence (P35368 whole entry, species assumed): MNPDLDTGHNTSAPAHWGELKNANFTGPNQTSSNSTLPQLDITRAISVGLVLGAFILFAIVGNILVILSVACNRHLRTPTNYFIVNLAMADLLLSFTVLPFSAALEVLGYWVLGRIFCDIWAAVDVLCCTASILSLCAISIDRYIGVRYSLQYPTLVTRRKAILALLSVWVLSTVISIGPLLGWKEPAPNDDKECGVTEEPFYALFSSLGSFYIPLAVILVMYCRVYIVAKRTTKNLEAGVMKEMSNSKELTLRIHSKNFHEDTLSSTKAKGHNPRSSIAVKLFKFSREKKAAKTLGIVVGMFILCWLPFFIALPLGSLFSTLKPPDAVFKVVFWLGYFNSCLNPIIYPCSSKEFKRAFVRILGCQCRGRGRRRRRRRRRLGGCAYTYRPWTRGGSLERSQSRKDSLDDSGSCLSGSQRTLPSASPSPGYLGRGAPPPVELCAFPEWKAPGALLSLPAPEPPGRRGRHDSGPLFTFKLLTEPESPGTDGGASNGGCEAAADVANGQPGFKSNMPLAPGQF

SMILES: C[C@H](NC(=O)c1c(Cc2ccc(F)cc2)sc2c1CCOC2)c1ccc(C(=O)O)cc1 [TP-16]
- IC50 (ADRA1B): > 10 µM
- IL-4/PGE2-induced phosphorylation of STAT3 and AKT (STAT3 and AKT signaling): significantly reversed
- IC50 (ADRB1): > 10 µM
- effect on cell viability (HCT8): did not affect the viability
- effect on cell viability (HCT116): did not affect the viability
- effect on cell viability (HUVEC): did not affect the viability
- effect on cell viability (DLD1): did not affect the viability
- effect on cell viability (HT29): did not affect the viability
- %TGI (4T1 tumors): 27.3%
- IC50 (AT1): > 10 µM
- %TGI (tumor growth inhibition) (CT26 tumors; CT26, BALB/c mice, 37.5 mg/kg p.o. daily, 16 days): 26.2%
- %TGI (tumor growth inhibition) (CT26 tumors; CT26, BALB/c mice, 75 mg/kg p.o. daily, 16 days): 47.4%
- %TGI (tumor growth inhibition) (CT26 tumors; CT26, BALB/c mice, 150 mg/kg p.o. daily, 16 days): 47.6%
- anti-tumor efficacy compared with E7046 (CT26 tumors; CT26, BALB/c mice, both 150 mg/kg): greater efficacy than E7046
- median survival time (CT26 tumors; CT26, BALB/c, TP-16 75 mg/kg p.o. daily, anti-PD-1 50 μg i.p. twice weekly, 2 weeks, control 16 days): 30 days
- anti-tumor efficacy compared with celecoxib (CT26 tumors; CT26, TP-16 75 mg/kg vs celecoxib 100 mg/kg, p.o. daily, 16 days): superior
- IC50 (HRH1): > 10 µM
